{
  "source": "patent US20220202792A1",
  "about": "“METHODS AND COMPOSITIONS FOR TREATING CHRONIC INFLAMMATORY INJURY, METAPLASIA, DYSPLASIA AND CANCERS OF EPITHELIAL TISSUES” (University of Houston System, priority 2019, published 2022)",
  "key": {"JMJD2A (KDM4A)": {"molecular_target": "T1, JMJD2A (KDM4A) (Homo sapiens, UniProt O75164)", "T1 sequence (O75164 1-1064)": "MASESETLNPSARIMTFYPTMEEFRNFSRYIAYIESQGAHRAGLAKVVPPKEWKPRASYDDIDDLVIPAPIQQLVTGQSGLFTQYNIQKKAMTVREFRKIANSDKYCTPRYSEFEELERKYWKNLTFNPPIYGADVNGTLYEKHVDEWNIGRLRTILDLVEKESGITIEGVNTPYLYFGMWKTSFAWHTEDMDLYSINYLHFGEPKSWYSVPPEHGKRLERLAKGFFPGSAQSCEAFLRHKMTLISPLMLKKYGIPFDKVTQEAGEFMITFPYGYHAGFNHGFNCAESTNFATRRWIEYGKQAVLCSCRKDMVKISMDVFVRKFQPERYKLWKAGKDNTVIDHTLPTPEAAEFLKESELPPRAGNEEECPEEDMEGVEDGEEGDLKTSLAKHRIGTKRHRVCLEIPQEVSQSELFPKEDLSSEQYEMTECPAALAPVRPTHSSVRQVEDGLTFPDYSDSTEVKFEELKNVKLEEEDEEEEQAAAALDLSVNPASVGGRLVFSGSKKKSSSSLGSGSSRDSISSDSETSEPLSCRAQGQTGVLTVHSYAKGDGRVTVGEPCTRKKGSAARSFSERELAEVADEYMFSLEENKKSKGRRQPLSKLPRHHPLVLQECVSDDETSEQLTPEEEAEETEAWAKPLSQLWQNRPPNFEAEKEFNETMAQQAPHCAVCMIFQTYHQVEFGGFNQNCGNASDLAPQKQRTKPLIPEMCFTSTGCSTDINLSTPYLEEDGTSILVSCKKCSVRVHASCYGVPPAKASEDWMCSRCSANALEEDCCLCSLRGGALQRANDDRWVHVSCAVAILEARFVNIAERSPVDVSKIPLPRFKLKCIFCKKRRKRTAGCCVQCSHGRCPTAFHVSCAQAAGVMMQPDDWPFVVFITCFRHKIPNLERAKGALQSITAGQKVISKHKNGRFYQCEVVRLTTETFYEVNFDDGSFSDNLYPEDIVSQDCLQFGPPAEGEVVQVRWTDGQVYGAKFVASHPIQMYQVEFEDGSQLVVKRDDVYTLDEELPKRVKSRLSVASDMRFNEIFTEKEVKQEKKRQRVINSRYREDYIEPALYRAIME", "details": "demethylase activity in vitro; cited from earlier work"}, "[1]": {"tested_on": "dysplasia and cancer stem cells", "experiment": "Mice xenografted with dysplasia and cancer stem cells", "type": "in vivo", "details": "with Ponatinib", "from_the_text": "FIG. 5C. Schematic of in vivo validation of drug combinations in mice xenografted with dysplasia and cancer stem cells. Following the treatment, the xenografts were processed for histological analysis or clonogenic assays to detect the existence of stem cells."}, "[2]": {"tested_on": "esophageal squamous stem cells (ESO stem cells, Krt5+)", "experiment": "High throughput chemical screening and dose response on GFP-labeled stem cells", "type": "cell-based, human", "details": "in the presence of 1 μM Ponatinib"}, "[3]": {"tested_on": "Barrett's stem cells (BE stem cells, Krt7+)", "experiment": "High throughput chemical screening and dose response on GFP-labeled stem cells", "type": "cell-based, human"}, "[4]": {"tested_on": "aggressive breast cancer model", "details": "in vivo; cited from earlier work"}},
  "data": [
    {"smiles": "Clc1ccc(N/N=C(\\c2ccccc2)c2ccccn2)nc1", "note": "[JIB04]", "values": [
      {"measurement": "IC50", "setting": "JMJD2A (KDM4A)", "result": "~440", "unit": "nM"},
      {"measurement": "Dysplastic structures (Krt7+/Ki67+) in xenografts", "setting": "[1]", "result": "diminished"},
      {"measurement": "eradication of precancerous, dysplastic and cancerous stem cells in mouse xenograft models", "setting": "[1]", "result": "eradicate"},
      {"measurement": "stem cells cloned from treated dysplastic structures (rhodamine staining)", "setting": "[1]", "result": "not cloned"},
      {"measurement": "effect on Esophageal stem cells", "setting": "[2]", "result": "without affecting"},
      {"measurement": "differential of dose-response curves, BE stem cells versus normal esophageal stem cells", "setting": "[3]; in the background of a fixed concentration of Ponatinib", "result": "~1,000 fold"},
      {"measurement": "lethality towards Barrett's stem cells", "setting": "[3]; screened in the background of 1 μM Ponatinib", "result": "displayed the lethality"},
      {"measurement": "tumor burden and survival of mice", "setting": "[4]", "result": "reduces tumor burden and prolongs survival"}
    ]}
  ]
}
